Activity calls are given as the source filed them. No cut-off for these calls is given here.
Columns and labels:
[1] = biological target: T1, Matrix metalloproteinase-9 (Homo sapiens, UniProt P14780); experiment: Inhibition of MMP-9 homodimerization in human T98G cells assessed as reduction in cell invasion at 5 to 25 nM measured after 24 hrs by p-formaldehyde/crystal violet staining based matrigel basement membrane transwell assay
[2] = biological target: T1, Matrix metalloproteinase-9; experiment: Inhibition of p-aminophenylmercuric acetate activated recombinant human MMP-9 expressed in CHO cells pretreated for 4 hrs followed by Mca-Lys-Pro-Leu-Gly-Leu-Dap(Dnp)-Ala-Arg-NH2 fluorogenic substrate addition measured every 15 secs for 20 mins by fluorimetric assay; assay type: cell-based
Interstitial collagenase = biological target: T2, Interstitial collagenase (Homo sapiens, UniProt P03956); experiment: Inhibition of p-aminophenylmercuric acetate activated human rheumatoid synovial fibroblast MMP-1 pretreated for 4 hrs followed by Mca-Lys-Pro-Leu-Gly-Leu-Dap(Dnp)-Ala-Arg-NH2 fluorogenic substrate addition measured every 15 secs for 20 mins by fluorimetric assay
T2 sequence (P03956 whole entry): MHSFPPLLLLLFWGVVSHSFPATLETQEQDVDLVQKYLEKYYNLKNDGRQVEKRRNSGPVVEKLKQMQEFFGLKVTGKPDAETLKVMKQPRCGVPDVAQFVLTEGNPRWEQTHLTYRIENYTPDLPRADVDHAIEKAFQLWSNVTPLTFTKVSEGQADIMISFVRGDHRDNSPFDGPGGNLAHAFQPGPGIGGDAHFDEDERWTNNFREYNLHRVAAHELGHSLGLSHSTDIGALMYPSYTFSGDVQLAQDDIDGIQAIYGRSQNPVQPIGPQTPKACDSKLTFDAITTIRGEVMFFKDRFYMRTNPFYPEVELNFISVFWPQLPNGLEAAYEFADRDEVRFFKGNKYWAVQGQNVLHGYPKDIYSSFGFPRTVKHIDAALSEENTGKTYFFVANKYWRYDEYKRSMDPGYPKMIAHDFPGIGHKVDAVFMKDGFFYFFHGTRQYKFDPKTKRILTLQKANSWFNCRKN

[3] = Antiproliferative activity against human T98G cells at 5 to 25 nM measured after 24 hrs by MTS assay; assay type: cell-based; details: 0.025 µM
[4] = Antiproliferative activity against human U343MG cells at 5 to 25 nM measured after 24 hrs by MTS assay; assay type: cell-based; details: 0.025 µM
[5] = biological target: T1, Matrix metalloproteinase-9; experiment: Inhibition of MMP-9 homodimerization in human U87MG cells assessed as reduction in cell invasion at 5 to 25 nM measured after 24 hrs by p-formaldehyde/crystal violet staining based matrigel basement membrane transwell assay; details: U-87MG ATCC
[6] = biological target: Matrix metalloproteinase-14 (Homo sapiens, UniProt P50281); experiment: Inhibition of recombinant human MMP-14 catalytic domain pretreated for 4 hrs followed by Mca-Lys-Pro-Leu-Gly-Leu-Dap(Dnp)-Ala-Arg-NH2 fluorogenic substrate addition measured every 15 secs for 20 mins by fluorimetric assay
[7] = Antiproliferative activity against human U87MG cells at 5 to 25 nM measured after 24 hrs by MTS assay; assay type: cell-based; details: u-87mg atcc, 0.025 µM
[8] = biological target: 72 kDa type IV collagenase (Homo sapiens, UniProt P08253); experiment: Inhibition of p-aminophenylmercuric acetate activated recombinant human MMP-2 expressed in CHO cells pretreated for 4 hrs followed by Mca-Lys-Pro-Leu-Gly-Leu-Dap(Dnp)-Ala-Arg-NH2 fluorogenic substrate addition measured every 15 secs for 20 mins by fluorimetric assay; assay type: cell-based
[9] = biological target: T1, Matrix metalloproteinase-9; experiment: Inhibition of MMP-9 homodimerization in human U343MG cells assessed as reduction in cell invasion at 25 nM measured after 24 hrs by p-formaldehyde/crystal violet staining based matrigel basement membrane transwell assay
Homo sapiens = species on record: Homo sapiens; experiment: Selectivity ratio of IC50 for p-aminophenylmercuric acetate activated human rheumatoid synovial fibroblast MMP-1 to IC50 for p-aminophenylmercuric acetate activated recombinant human MMP-9
[10] = biological target: T1, Matrix metalloproteinase-9; details: T98G, 25 nM
Description: Inhibition of MMP-9 homodimerization in human T98G cells assessed as reduction in cell invasion at 25 nM measured after 24 hrs by p-formaldehyde/crystal violet staining based matrigel basement membrane transwell assay

[11] = biological target: T1, Matrix metalloproteinase-9; details: U-87MG ATCC, 25 nM
Description: Inhibition of MMP-9 homodimerization in human U87MG cells assessed as reduction in cell invasion at 25 nM measured after 24 hrs by p-formaldehyde/crystal violet staining based matrigel basement membrane transwell assay

T1 sequence (P14780 whole entry): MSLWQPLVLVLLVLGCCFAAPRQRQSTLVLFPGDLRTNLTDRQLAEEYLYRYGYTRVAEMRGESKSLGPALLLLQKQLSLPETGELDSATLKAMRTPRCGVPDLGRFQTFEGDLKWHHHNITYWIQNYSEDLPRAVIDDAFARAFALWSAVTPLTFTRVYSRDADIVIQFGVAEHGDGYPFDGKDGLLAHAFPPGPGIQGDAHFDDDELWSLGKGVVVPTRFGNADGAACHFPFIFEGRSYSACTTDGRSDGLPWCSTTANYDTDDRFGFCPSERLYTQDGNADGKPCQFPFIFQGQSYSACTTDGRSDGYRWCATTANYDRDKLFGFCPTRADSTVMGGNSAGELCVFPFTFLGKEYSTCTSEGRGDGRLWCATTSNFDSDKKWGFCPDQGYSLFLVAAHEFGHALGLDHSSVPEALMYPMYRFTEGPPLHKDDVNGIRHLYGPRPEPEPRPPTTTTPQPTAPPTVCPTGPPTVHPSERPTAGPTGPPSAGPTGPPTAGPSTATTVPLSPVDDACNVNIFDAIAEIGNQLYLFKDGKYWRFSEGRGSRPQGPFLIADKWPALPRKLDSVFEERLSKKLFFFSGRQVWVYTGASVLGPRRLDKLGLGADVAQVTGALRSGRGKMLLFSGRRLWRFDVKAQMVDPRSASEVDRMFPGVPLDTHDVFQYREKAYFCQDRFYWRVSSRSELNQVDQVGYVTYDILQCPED
Sequence of 72 kDa type IV collagenase (P08253 whole entry): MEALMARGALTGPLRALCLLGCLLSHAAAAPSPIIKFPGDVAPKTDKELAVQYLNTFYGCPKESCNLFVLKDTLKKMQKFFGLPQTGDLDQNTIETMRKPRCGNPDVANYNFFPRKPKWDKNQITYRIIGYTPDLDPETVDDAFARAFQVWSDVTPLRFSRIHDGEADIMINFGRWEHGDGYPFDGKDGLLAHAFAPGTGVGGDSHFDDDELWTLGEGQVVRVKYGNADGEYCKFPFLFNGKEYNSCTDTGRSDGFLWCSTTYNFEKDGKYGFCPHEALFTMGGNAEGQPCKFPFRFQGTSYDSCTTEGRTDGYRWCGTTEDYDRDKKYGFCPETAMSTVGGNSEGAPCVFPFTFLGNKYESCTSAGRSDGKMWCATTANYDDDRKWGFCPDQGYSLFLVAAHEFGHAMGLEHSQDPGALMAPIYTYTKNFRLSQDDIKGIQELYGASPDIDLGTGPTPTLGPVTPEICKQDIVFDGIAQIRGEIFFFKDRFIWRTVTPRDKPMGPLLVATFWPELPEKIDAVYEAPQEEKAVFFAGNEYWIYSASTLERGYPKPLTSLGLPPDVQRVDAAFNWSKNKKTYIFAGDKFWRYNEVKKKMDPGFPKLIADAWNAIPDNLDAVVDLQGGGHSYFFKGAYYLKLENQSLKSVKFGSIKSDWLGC

Row | SMILES | inhibition [1] | IC50 [2] [nM] | IC50 (Interstitial collagenase) [nM] | Activity [3] | Activity [4] | inhibition [5] | IC50 [6] [nM] | Activity [7] | IC50 [8] [nM] | inhibition [9] | Ratio IC50 (Homo sapiens) | inhibition [10] | inhibition [11]
1 | CC(C)[C@H](C(=O)NO)N(CCNC(=O)c1ccccc1)S(=O)(=O)c1ccc(-c2ccccc2)cc1 | Active | 2.5 | 13 | Non-Toxic | Non-Toxic | Active | 23 | Non-Toxic | 0.16 | – | – | – | –
2 | CC(C)[C@H](C(=O)NO)N(CCNC(=O)c1cccc(C(=O)NCCN([C@@H](C(=O)N(C)C)C(C)C)S(=O)(=O)c2ccc(-c3ccccc3)cc2)c1)S(=O)(=O)c1ccc(-c2ccccc2)cc1 | – | 41 | 1600 | – | – | – | 900 | – | 107 | – | – | – | –
3 | CC(C)ON([C@H](CCNC(=O)CCCNC(=O)c1cccc(C(=O)NCCCC(=O)NCC[C@H](C(=O)NO)N(OC(C)C)S(=O)(=O)c2ccc(-c3ccccc3)cc2)c1)C(=O)NO)S(=O)(=O)c1ccc(-c2ccccc2)cc1 | – | 38 | 5200 | – | – | – | 116 | – | 20 | – | – | – | –
4 | CC(C)[C@H](C(=O)NO)N(CCNC(=O)c1cccc(C(=O)NCCN([C@@H](C(=O)NO)C(C)C)S(=O)(=O)c2ccc(-c3ccccc3)cc2)c1)S(=O)(=O)c1ccc(-c2ccccc2)cc1 | Active | 5.5 | 280 | Non-Toxic | Non-Toxic | Active | 250 | Non-Toxic | 10 | Active | – | – | –
5 | CC(C)[C@H](C(=O)O)N(CCNC(=O)c1ccccc1)S(=O)(=O)c1ccc(-c2ccccc2)cc1 | Active | 510 | 16000 | Non-Toxic | Non-Toxic | Active | 1830 | Non-Toxic | 170 | – | – | – | –
6 | CC(C)[C@H](C(=O)O)N(CCNC(=O)c1cccc(C(=O)NCCN([C@@H](C(=O)O)C(C)C)S(=O)(=O)c2ccc(-c3ccccc3)cc2)c1)S(=O)(=O)c1ccc(-c2ccccc2)cc1 | Active | 26 | 11800 | Non-Toxic | Non-Toxic | Active | 2200 | Non-Toxic | 63 | Active | 450 | – | –
7 | COc1ccc(S(=O)(=O)N(Cc2cccnc2)[C@@H](C(=O)NO)C(C)C)cc1 | – | – | – | – | – | – | – | – | – | Active | – | Active | Active
8 | CC(C)[C@H](C(=O)O)N(CCNC(=O)c1cccc(C(=O)NCCN([C@@H](C(=O)N(C)C)C(C)C)S(=O)(=O)c2ccc(-c3ccccc3)cc2)c1)S(=O)(=O)c1ccc(-c2ccccc2)cc1 | – | 34 | 2050 | – | – | – | 850 | – | 110 | – | – | – | –
